Experimental data reported in US9107849B2, “Anti-glycation agent comprising a Garcinia kola extract or fraction” (UNIVERSITE D'ANGERS, priority 2012, dated 2015).

What was measured:
[1] = DPPH antioxidant potential; conditions: for DPPH (μmol TE/g): TE: Trolox Equivalent
calf skin collagen = biological target: T1, calf skin collagen (Bos taurus, UniProt P02453+P02465); experiment: Anti-AGE activity on calf skin collagen in solution in the presence of ribose (pentosidine-type AGE fluorescence); type: biochemical; conditions: for IC50: read-out: Anti-AGE activity measured on collagen (IC50 in mg/mL) (converted)
T1 construct: from tissue; host or cells: calf skin
T1 sequence (P02453 162-1217 limits assumed): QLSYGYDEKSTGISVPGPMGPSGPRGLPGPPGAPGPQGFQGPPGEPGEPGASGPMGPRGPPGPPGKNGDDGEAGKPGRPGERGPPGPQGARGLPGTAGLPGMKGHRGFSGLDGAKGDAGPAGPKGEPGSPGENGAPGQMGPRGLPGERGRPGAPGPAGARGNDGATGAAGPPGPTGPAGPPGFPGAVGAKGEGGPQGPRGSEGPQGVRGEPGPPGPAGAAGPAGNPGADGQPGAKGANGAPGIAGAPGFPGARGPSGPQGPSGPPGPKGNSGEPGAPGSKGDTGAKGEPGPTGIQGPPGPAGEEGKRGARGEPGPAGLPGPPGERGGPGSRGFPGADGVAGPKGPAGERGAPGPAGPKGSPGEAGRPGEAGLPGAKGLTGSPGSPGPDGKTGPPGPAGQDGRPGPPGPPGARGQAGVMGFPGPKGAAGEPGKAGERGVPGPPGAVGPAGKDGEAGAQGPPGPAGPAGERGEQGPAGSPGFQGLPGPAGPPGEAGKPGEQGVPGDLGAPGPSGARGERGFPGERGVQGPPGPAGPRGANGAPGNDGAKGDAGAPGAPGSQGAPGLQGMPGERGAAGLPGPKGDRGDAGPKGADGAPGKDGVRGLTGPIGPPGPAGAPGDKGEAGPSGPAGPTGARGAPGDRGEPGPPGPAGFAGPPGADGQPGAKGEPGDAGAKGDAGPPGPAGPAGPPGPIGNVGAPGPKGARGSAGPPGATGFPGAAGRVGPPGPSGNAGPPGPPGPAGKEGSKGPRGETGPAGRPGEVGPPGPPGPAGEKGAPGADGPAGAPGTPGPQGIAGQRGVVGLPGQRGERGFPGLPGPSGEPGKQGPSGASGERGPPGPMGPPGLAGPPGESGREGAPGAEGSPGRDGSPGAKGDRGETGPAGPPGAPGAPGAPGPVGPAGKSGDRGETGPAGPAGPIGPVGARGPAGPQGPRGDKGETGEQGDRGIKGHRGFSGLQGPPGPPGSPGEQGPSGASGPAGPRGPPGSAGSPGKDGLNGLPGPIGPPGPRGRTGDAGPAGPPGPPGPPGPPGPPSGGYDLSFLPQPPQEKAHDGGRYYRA
T1 sequence (P02465 80-1117 limits assumed): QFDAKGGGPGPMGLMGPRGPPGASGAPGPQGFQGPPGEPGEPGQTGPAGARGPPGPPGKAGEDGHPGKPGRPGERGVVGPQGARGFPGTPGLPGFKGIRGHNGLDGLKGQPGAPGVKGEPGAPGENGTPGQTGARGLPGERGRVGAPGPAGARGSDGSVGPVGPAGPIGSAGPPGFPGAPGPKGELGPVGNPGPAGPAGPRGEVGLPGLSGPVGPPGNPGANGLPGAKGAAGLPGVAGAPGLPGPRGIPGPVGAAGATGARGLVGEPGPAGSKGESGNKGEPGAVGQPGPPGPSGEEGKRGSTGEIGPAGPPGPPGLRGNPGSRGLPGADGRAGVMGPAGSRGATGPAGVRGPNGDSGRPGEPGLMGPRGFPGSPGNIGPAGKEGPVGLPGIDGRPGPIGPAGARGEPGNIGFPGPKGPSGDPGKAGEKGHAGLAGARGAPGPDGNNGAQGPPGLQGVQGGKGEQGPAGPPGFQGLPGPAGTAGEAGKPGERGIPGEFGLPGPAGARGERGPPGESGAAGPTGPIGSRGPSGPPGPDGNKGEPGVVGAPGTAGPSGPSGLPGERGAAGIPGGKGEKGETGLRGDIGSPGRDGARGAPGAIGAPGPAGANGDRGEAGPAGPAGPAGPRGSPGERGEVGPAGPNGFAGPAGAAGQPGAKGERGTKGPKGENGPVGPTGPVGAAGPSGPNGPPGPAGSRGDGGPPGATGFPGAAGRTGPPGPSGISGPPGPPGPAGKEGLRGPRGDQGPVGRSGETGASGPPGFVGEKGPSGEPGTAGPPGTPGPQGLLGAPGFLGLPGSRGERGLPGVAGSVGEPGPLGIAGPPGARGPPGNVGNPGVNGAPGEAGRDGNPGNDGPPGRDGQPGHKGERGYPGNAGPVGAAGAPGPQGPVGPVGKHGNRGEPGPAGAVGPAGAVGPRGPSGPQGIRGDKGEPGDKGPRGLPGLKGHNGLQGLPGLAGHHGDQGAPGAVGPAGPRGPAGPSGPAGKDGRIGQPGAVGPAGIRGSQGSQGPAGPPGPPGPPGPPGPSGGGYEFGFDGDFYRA
Protocol: Calf skin collagen (0.1 mg/mL) and ribose (0.5 M) are incubated in phosphate buffer 50 mM pH 7.4 at 37° C. in a 96-well Greiner bio-one plate with a black bottom (100 μL). The same experiment is performed in the presence of an AGE formation inhibitor, such as aminoguanidine (1 mg/mL, DMSO 10%). The following control solutions are also prepared: collagen (0.1 mg/mL) with or without an AGE formation inhibitor (1 mg/mL, DMSO 10%) is incubated in phosphate buffer 50 mM pH 7.4 at 37° C.

[2] = ORAC antioxidant potential; conditions: for ORAC (μmol TE/g): TE: Trolox Equivalent
albumin = albumin (Bos taurus, UniProt P02769); experiment: Anti-AGE activity measured on albumin (pentosidine-type AGEs formed); type: biochemical; conditions: quantity of pentosidine-type AGEs formed
Sequence of albumin (P02769 25-607): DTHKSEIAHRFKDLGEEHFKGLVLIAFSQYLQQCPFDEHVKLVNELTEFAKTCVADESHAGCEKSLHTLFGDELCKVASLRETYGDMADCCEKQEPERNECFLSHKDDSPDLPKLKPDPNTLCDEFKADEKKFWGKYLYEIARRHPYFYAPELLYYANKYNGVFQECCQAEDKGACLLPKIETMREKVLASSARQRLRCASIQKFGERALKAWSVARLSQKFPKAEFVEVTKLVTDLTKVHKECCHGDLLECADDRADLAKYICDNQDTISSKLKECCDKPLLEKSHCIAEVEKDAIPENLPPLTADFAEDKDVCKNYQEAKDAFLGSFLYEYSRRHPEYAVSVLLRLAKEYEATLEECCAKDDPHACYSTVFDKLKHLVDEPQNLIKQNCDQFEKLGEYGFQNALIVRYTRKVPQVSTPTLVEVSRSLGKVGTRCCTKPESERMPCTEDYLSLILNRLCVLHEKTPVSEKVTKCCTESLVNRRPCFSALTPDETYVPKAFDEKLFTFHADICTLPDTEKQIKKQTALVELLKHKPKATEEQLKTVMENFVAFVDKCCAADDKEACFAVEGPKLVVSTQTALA

[3] = ribose, quantity of pentosidine-type AGEs formed, NA: Inactive

Molecule	DPPH (μmol TE/g) [1]	IC50 (calf skin collagen; [3])	ORAC (μmol TE/g) [2]	further results
N=C(N)NN [Aminoguanidine]	0 μmol TE/g	13500 µM	0 μmol TE/g	antioxidant activity, DPPH test (in words) [1]: does not have an antioxidant activity; antioxidant activity, ORAC test (in words) [2]: does not have an antioxidant activity; IC50 (albumin; read-out: Anti-AGE activity measured on albumin (IC50 in mg/mL) (converted)): 2020 µM
Oc1cc(O)c2c(c1)O[C@H](c1ccc(O)c(O)c1)[C@H](O)[C@H]2c1c(O)cc(O)c2c1O[C@H](c1ccc(O)c(O)c1)[C@H](O)C2 [Procyanidin B2]	3945 μmol TE/g	–	23720 μmol TE/g	Anti-AGE activity measured on albumin (IC50 in mg/mL) (albumin): 0.1 mg/mL
O=c1c(O)c(-c2ccc(O)c(O)c2)oc2cc(O)cc(O)c12 [Quercetin]	6722 μmol TE/g	1160 µM	–	–
C/C(=C\CC/C(C)=C/CC[C@]1(C)CCc2cc(O)cc(C)c2O1)CC/C=C(\C)C(=O)O [garcinoic acid]	–	–	–	anti-glycation activity on calf skin collagen (in words) (calf skin collagen): has a real anti-glycation activity, but nevertheless inferior to that of kolaviron
GB2	–	–	–	Anti-AGE activity measured on collagen (IC50 in mg/mL) (calf skin collagen; [3]): 0.03 mg/mL
